Results taken from ChEMBL document CHEMBL1150260 (J Med Chem, 2008).

Tests used:
Rattus norvegicus [1] = organism: Rattus norvegicus; test: Selectivity for rat dopamine D3 receptor over rat dopamine D2L receptor
D(3) dopamine receptor [2] = target: D(3) dopamine receptor (Rattus norvegicus, UniProt P19020); test: biochemical
Description: Displacement of [3H]spiperone from rat dopamine D3 receptor expressed in HEK293 cells

D(2) dopamine receptor [3] = target: D(2) dopamine receptor (Rattus norvegicus, UniProt P61169); test: biochemical
Description: Displacement of [3H]spiperone from rat dopamine D2L receptor expressed in HEK293 cells

D(2) dopamine receptor [4] = target: T1, D(2) dopamine receptor (Homo sapiens, UniProt P14416); test: Agonist activity at human dopamine D2L receptor expressed in CHO cells assessed as stimulation of [35S]GTPgammaS binding relative to dopamine; assay type: functional, cell-based
T1 sequence (P14416 whole entry): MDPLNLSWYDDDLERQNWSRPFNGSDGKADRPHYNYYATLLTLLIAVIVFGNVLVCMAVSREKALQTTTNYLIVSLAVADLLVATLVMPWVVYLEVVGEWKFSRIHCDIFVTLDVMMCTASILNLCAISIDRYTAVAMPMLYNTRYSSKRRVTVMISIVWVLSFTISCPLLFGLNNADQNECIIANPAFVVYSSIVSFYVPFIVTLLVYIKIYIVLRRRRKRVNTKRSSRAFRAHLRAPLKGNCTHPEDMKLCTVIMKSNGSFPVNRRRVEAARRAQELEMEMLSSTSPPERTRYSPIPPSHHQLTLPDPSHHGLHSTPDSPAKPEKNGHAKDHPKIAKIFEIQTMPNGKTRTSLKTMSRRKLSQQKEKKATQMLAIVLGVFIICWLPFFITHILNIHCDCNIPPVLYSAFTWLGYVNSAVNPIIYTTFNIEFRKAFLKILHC

Rattus norvegicus [5] = test: Induction of rotational activity in subcutaneously dosed 6-hydroxydopamine unilaterally lesioned rat assessed as contralateral rotation; assay type: functional, organism-based
Rattus norvegicus [6] = test: Induction of rotational activity in 6-hydroxydopamine unilaterally lesioned rat assessed as number of contralateral rotation at 5 umol/kg, sc after […]; assay type: functional
Rattus norvegicus [7] = test: Induction of rotational activity in 6-hydroxydopamine unilaterally lesioned rat assessed as number of contralateral rotation at 2.5 umol/kg, sc after 8 hrs; assay type: functional
D(2) dopamine receptor [8] = target: T1, D(2) dopamine receptor
D(3) dopamine receptor [9] = target: D(3) dopamine receptor (Homo sapiens, UniProt P35462)
Chain of D(3) dopamine receptor (Homo sapiens, UniProt P35462) (P35462 whole entry): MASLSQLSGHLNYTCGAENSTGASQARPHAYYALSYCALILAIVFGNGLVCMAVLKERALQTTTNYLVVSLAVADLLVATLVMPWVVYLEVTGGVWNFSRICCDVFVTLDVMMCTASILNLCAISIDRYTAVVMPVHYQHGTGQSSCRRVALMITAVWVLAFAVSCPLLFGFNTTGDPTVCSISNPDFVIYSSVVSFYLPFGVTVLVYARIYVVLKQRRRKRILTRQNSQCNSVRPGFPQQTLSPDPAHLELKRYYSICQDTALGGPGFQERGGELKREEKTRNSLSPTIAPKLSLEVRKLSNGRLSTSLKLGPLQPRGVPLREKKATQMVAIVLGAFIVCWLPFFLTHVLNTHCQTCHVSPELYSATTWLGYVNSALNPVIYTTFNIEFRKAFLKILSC
Description: Agonist activity at human dopamine D3 receptor expressed in mouse ATt-20 cells assessed as stimulation of [35S]GTPgammaS binding

Chain of D(2) dopamine receptor (Rattus norvegicus, UniProt P61169) (P61169 whole entry): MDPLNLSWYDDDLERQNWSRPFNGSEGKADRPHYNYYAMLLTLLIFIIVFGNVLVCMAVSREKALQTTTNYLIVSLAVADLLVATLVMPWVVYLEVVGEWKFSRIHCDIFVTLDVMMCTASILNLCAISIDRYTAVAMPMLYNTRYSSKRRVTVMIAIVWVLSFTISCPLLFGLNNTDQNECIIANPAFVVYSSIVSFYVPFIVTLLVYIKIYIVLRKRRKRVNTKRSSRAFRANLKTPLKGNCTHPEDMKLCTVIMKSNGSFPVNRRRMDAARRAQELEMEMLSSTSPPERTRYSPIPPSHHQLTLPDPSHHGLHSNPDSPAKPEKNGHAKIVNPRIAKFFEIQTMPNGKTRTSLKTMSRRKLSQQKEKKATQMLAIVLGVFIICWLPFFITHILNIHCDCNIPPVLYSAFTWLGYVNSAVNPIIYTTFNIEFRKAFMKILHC
Chain of D(3) dopamine receptor (Rattus norvegicus, UniProt P19020) (P19020 whole entry): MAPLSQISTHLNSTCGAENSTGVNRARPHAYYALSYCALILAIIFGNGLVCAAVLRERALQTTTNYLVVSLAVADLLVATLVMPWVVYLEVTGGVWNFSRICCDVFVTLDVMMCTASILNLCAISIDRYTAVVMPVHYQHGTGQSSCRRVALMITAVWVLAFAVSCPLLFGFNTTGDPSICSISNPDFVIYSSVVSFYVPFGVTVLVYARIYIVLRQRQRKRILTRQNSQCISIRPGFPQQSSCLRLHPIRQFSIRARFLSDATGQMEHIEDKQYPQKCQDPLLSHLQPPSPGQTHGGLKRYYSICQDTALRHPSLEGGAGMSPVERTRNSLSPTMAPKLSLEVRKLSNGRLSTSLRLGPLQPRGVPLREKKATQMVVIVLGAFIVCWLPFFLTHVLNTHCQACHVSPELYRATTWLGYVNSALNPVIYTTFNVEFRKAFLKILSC

Ratio Ki (Rattus norvegicus [1])	Ki (D(3) dopamine receptor [2]) [nM]	Ki (D(2) dopamine receptor [3]) [nM]	Structure (SMILES)	other results
–	4.15	243	CCCN(CCN1CCN(c2ccccc2)CC1)C1CCc2nc(N)sc2C1 (stereo in doubt; (-)-31) [listing 1 of 2 here]	–
2.4	–	–	CCCN(CCN1CCN(c2ccccc2OC)CC1)C1CCc2nc(N)sc2C1 (single isomer, unassigned; (+)) [listing 1 of 2 here]	–
–	44	1980	CCCN(CCN1CCN(c2ccccc2)CC1)C1CCc2nc(N)sc2C1 (single isomer, unassigned; (+)) [listing 1 of 2 here]	–
–	–	–	CCCN(CCC)C1CCc2ccc(O)cc2C1 (stereo not drawn)	Emax (D(2) dopamine receptor [4]): 61.4%
39.3	46.7	1830	CCCN(CCN1CCN(c2ccccc2)CC1)C1CCc2[nH]ncc2C1 (stereo not drawn)	–
–	101	243	CCCN(CCN1CCN(c2ccccc2OC)CC1)C1CCc2nc(N)sc2C1 (single isomer, unassigned; (+)) [listing 2 of 2 here]	–
4.92	7.1	34.9	C#CCN(CCN1CCN(c2cccc(Cl)c2Cl)CC1)C1CCc2nc(N)sc2C1 (stereo not drawn)	–
4.66	160	746	CCCN(CCN1CCN(c2ccccc2)CC1)C1CCc2nnsc2C1 (stereo not drawn)	–
–	5.96	639	CCCN(CCN1CCN(c2ccccc2)CC1)C1CCc2nc(N)sc2C1 (stereo in doubt; 6a) [listing 1 of 2 here]	–
107	–	–	CCCN(CCN1CCN(c2ccccc2)CC1)C1CCc2nc(N)sc2C1 (stereo in doubt; 6a) [listing 2 of 2 here]	–
3.2	254	813	CCCN(CCN1CCN(c2ccccc2)CC1)C1CCc2nocc2C1 (stereo not drawn)	–
–	7.01	288	CCCN(CCN1CCN(c2ccccc2OC)CC1)C1CCc2nc(N)sc2C1 (single isomer, unassigned; (-)) [listing 1 of 2 here]	–
–	5.09	166	CCCN(CCN1CCN(c2ccccc2OC)CC1)C1CCc2nc(N)sc2C1 (stereo in doubt; 6b) [listing 1 of 2 here]	–
2.33	34.8	81.2	C#CCN(CCN1CCN(c2ccccc2OC)CC1)C1CCc2nc(N)sc2C1 (stereo not drawn)	–
58.6	–	–	CCCN(CCN1CCN(c2ccccc2)CC1)C1CCc2nc(N)sc2C1 (stereo in doubt; (-)-31) [listing 2 of 2 here]	–
91	1.56	142	CCCN(CCN1CCN(c2ccccc2)CC1)C1CCc2ccc(O)cc2C1 (stereo not drawn)	–
13.7	188	2570	CCCN(CCN1CCN(c2ccccc2)CC1)C1CCc2c[nH]nc2C1 (stereo not drawn)	–
5.9	155	915	CCCN(CCN1CCN(c2ccccc2)CC1)C1CCc2oncc2C1 (stereo not drawn)	–
32.6	–	–	CCCN(CCN1CCN(c2ccccc2OC)CC1)C1CCc2nc(N)sc2C1 (stereo in doubt; 6b) [listing 2 of 2 here]	–
41.1	–	–	CCCN(CCN1CCN(c2ccccc2OC)CC1)C1CCc2nc(N)sc2C1 (single isomer, unassigned; (-)) [listing 2 of 2 here]	–
45	–	–	CCCN(CCN1CCN(c2ccccc2)CC1)C1CCc2nc(N)sc2C1 (single isomer, unassigned; (+)) [listing 2 of 2 here]	–

Structure (SMILES)	Ratio Ki (Rattus norvegicus [1])	Ki (D(3) dopamine receptor [2]) [nM]	Ki (D(2) dopamine receptor [3]) [nM]	other results
CCCN(CCN1CCN(c2cccc(Cl)c2Cl)CC1)C1CCc2nc(N)sc2C1 (stereo in doubt; 6c) [listing 1 of 2 here]	37.6	–	–	–
CCCN(CCN1CCN(c2cccc(Cl)c2Cl)CC1)C1CCc2nc(N)sc2C1 (stereo in doubt; (+)-33) [listing 1 of 2 here]	–	12	44.2	–
CCCN(CCN1CCN(c2cccc(Cl)c2Cl)CC1)C1CCc2nc(N)sc2C1 (stereo in doubt; (+)-33) [listing 2 of 2 here]	3.68	–	–	–
CCCN(CCN1CCN(c2cccc(Cl)c2Cl)CC1)C1CCc2nc(N)sc2C1 (stereo in doubt; (-)-33) [listing 1 of 2 here]	31.6	–	–	Emax (D(2) dopamine receptor [4]): 78.8%; Activity (Rattus norvegicus [5]): Dose-dependent effect
CCCN(CCN1CCN(c2cccc(Cl)c2Cl)CC1)C1CCc2nc(N)sc2C1 (stereo in doubt; 6c) [listing 2 of 2 here]	–	1.82	68.4	–
CCCN(CCCCN1CCN(c2ccccc2)CC1)C1CCc2nc(N)sc2C1 (stereo not drawn)	62	12.4	769	–
CCCN(CCN1CCN(c2ccc(-c3ccccc3)cc2)CC1)C1CCc2nc(N)sc2C1 (single isomer, unassigned; (-))	253	0.92	264	Emax (D(2) dopamine receptor [4]): 119%; Activity (Rattus norvegicus [5]): Dose-dependent effect; Activity (Rattus norvegicus [6]): 3866; Activity (Rattus norvegicus [7]): 2092; EC50 (D(2) dopamine receptor [8]): 19.9 nM; EC50 (D(3) dopamine receptor [9]): 0.085 nM
CCCN(CCN1CCN(c2ccccc2)CC1)C1CCc2nn[se]c2C1 (stereo not drawn)	4.64	40.7	189	–
CCCN(CCN1CCN(c2cccc(Cl)c2Cl)CC1)C1CCc2nc(N)sc2C1 (stereo in doubt; (-)-33) [listing 2 of 2 here]	–	1.8	56.8	Activity (Rattus norvegicus [6]): 2766; Activity (Rattus norvegicus [7]): 2281; EC50 (D(2) dopamine receptor [8]): 13.4 nM; EC50 (D(3) dopamine receptor [9]): 0.06 nM
